PMC8073777, “Design, Synthesis, Biological Evaluation and In Silico Studies of Pyrazole-Based NH2-Acyl Oseltamivir Analogues as Potent Neuraminidase Inhibitors” (Pharmaceuticals, 2021)

Target: A/H3N2 influenza NA (Influenza A virus (H3N2), UniProt Q91IQ5)
Type: biochemical, A/H3N2 influenza virus (clinical isolate from Hong Kong)
Conditions: 10 µM

Row | Compound | Inhibitory rate against A/H3N2 influenza NA [%]
1 | CCC(CC)O[C@@H]1C=C(C(=O)O)C[C@H](NC(=O)c2cnn(-c3ccc(Cl)cc3)c2)[C@H]1NC(C)=O [Compound 6k, (3R,4R,5S)-4-acetamido-5-(1-(4-chlorophenyl)-1H-pyrazole-4-carboxamido)-3-(pentan-3-yloxy) cyclohex-1-ene-1-carboxylic acid] | 25.67
2 | CCC(CC)O[C@@H]1C=C(C(=O)O)C[C@H](NC(=O)c2cc(C3CC3)n(-c3ccc(C(F)(F)F)cc3)n2)[C@H]1NC(C)=O [Compound 24e, (3R,4R,5S)-4-acetamido-5-(5-cyclopropyl-1-(4-(trifluoromethyl)phenyl)-1H-pyrazole-3-carboxamido)-3-(pentan-3-yloxy) cyclohex-1-ene-1-carboxylic acid] | 44.47
3 | CCC(CC)O[C@@H]1C=C(C(=O)O)C[C@H](NC(=O)c2cc(-c3ccc(Cl)cc3)n[nH]2)[C@H]1NC(C)=O [Compound 12b, (3R,4R,5S)-4-acetamido-5-(3-(4-chlorophenyl)-1H-pyrazole-5-carboxamido)-3-(pentan-3-yloxy) cyclohex-1-ene-1-carboxylic acid] | 50.43
4 | CCC(CC)O[C@@H]1C=C(C(=O)O)C[C@H](NC(=O)c2cc(C3CC3)n(-c3ccccc3)n2)[C@H]1NC(C)=O [Compound 24a, (3R,4R,5S)-4-acetamido-5-(5-cyclopropyl-1-phenyl-1H-pyrazole-3-carboxamido)-3-(pentan-3-yloxy) cyclohex-1-ene-1-carboxylic acid] | 30.57
5 | CCC(CC)O[C@@H]1C=C(C(=O)O)C[C@H](NC(=O)c2cc(C3CC3)n(-c3cccc(C)c3)n2)[C@H]1NC(C)=O [Compound 24c, (3R,4R,5S)-4-acetamido-5-(5-cyclopropyl-1-(m-tolyl)-1H-pyrazole-3-carboxamido)-3-(pentan-3-yloxy) cyclohex-1-ene-1-carboxylic acid] | 34.75
6 | CCC(CC)O[C@@H]1C=C(C(=O)O)C[C@H](NC(=O)c2cc(-c3ccc(OC)cc3)n[nH]2)[C@H]1NC(C)=O [Compound 12e, (3R,4R,5S)-4-acetamido-5-(3-(4-methoxyphenyl)-1H-pyrazole-5-carboxamido)-3-(pentan-3-yloxy) cyclohex-1-ene-1-carboxylic acid] | 42.02
7 | CCC(CC)O[C@@H]1C=C(C(=O)O)C[C@H](NC(=O)c2cc(-c3ccc(Cl)cc3)nn2CC2CCCCC2)[C@H]1NC(C)=O [Compound 16c, (3R,4R,5S)-4-acetamido-5-(3-(4-chlorophenyl)-1-(cyclohexylmethyl)-1H-pyrazole-5-carboxamido)-3-(pentan-3-yloxy) cyclohex-1-ene-1-carboxylic acid] | 48.50
8 | CCC(CC)O[C@@H]1C=C(C(=O)O)C[C@H](NC(=O)c2cnn(Cc3cccc(Cl)c3)c2)[C@H]1NC(C)=O [Compound 6c, (3R,4R,5S)-4-acetamido-5-(1-(3-chlorobenzyl)-1H-pyrazole-4-carboxamido)-3-(pentan-3-yloxy) cyclohex-1-ene-1-carboxylic acid] | 23.88
9 | CCC(CC)O[C@@H]1C=C(C(=O)O)C[C@H](NC(=O)c2cc(C3CC3)nn2-c2ccccc2)[C@H]1NC(C)=O [Compound 26a, (3R,4R,5S)-4-acetamido-5-(3-cyclopropyl-1-phenyl-1H-pyrazole-5-carboxamido)-3-(pentan-3-yloxy) cyclohex-1-ene-1-carboxylic acid] | 30.41
10 | CCC(CC)O[C@@H]1C=C(C(=O)O)C[C@H](NC(=O)c2cc(-c3ccc(F)cc3)n[nH]2)[C@H]1NC(C)=O [Compound 12c, (3R,4R,5S)-4-acetamido-5-(3-(4-fluorophenyl)-1H-pyrazole-5-carboxamido)-3-(pentan-3-yloxy) cyclohex-1-ene-1-carboxylic acid] | 56.45
11 | CCC(CC)O[C@@H]1C=C(C(=O)O)C[C@H](NC(=O)c2cc(C3CC3)nn2-c2ccccc2C)[C@H]1NC(C)=O [Compound 26b, (3R,4R,5S)-4-acetamido-5-(3-cyclopropyl-1-(o-tolyl)-1H-pyrazole-5-carboxamido)-3-(pentan-3-yloxy) cyclohex-1-ene-1-carboxylic acid] | 72.80
